{
  "source": "patent US20170065564A1",
  "about": "“BIS-CYCLIC GUANIDINE COMPOUND COMPOSITIONS, METHODS OF USE AND TREATMENT THEREOF” (University of South Florida, priority 2014, published 2017)",
  "key": {"K. pneumoniae": {"tested_on": "K. pneumoniae", "test": "Resistance serial passage assay", "assay_type": "cell-based, Klebsiella pneumoniae", "details": "8 passages, concentration doubled each day", "method_in_brief": "(§1)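 Cultures were diluted 1:100 and exposed to compound starting at half MIC, incubated 24 h at 37 °C. Each day, cells were passaged 1:100 into fresh media with compound at 2-fold higher concentration, for eight days in total. Run in triplicate.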"}, "Staphylococcus aureus": {"tested_on": "Staphylococcus aureus", "test": "MIC micro broth dilution assay", "assay_type": "cell-based", "details": "for MIC: Staphylococcus aureus", "method_in_brief": "(§2)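 Multidrug-resistant clinical ESKAPE isolates were grown overnight (Gram-positives in TSB, Gram-negatives in LB), diluted 1:1,000 and exposed to decreasing compound concentrations in DMF (≤2.0% DMF).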"}, "Enterobacter cloacae": {"tested_on": "Enterobacter cloacae", "test": "MIC micro broth dilution assay", "assay_type": "cell-based", "details": "for MIC: Enterobacter cloacae", "method_in_brief": "as §2"}, "E. cloacae": {"tested_on": "E. cloacae", "assay_type": "cell-based, Enterobacter cloacae", "details": "8 passages, concentration doubled each day", "experimental": "ESKAPE pathogens were grown overnight in liquid media at 37° C. These cultures were then diluted 1:100 in fresh media, and seeded into a 96-well plate. Lead bis-cyclic guanidines or control agents were added to respective wells at half MIC concentrations. […] These were then grown overnight, and the procedure repeated for a total of eight days."}, "A. baumannii": {"tested_on": "A. baumannii", "test": "Resistance serial passage assay", "assay_type": "cell-based, Acinetobacter baumannii", "details": "8 passages, concentration doubled each day", "method_in_brief": "as §1"}, "[1]": {"tested_on": "Klebsiella pneumoniae biofilm", "test": "Minimum biofilm eradication concentration (MBEC) assay", "assay_type": "cell-based", "details": "24 h biofilm, purified compound", "experimental": "(§3) The minimum biofilm eradication concentration (MBEC) was determined in 96-well microtiter plates as follows. Broth cultures of ESKAPE strains were grown using the conditions described above. Biofilms for each of the ESKAPE pathogens were generated from these as we have previously described for S. aureus, however human serum was not used for non-staphylococcal organisms.^44 46 For all organisms, biofilms were developed by standardizing an overnight culture into fresh media to an OD600 of 0.5 and adding 150 μl into each well of a 96-well microtiter plate. […] These cultures were incubated at 37° C. overnight alongside no drug controls. After 24 hours, the media was removed from wells and the biofilm resuspended in phosphate buffered saline (PBS). Cultures were mixed by vigorous pipetting, before being serially diluted in PBS, and plated in duplicate on relevant agar. Plates were incubated at 37° C. for 24 hours, and CFUs determined by enumeration. Each analysis was performed using three technical replicates, and antibiofilm activity was determined by comparing treated to untreated samples."}, "[2]": {"tested_on": "Pseudomonas aeruginosa biofilm", "test": "Minimum biofilm eradication concentration (MBEC) assay", "assay_type": "cell-based", "details": "24 h biofilm, purified compound", "experimental": "as §3"}, "[3]": {"tested_on": "Acinetobacter baumannii biofilm", "test": "Minimum biofilm eradication concentration (MBEC) assay", "assay_type": "cell-based", "details": "24 h biofilm, purified compound", "experimental": "as §3"}, "[4]": {"tested_on": "Enterococcus faecium biofilm", "test": "Minimum biofilm eradication concentration (MBEC) assay", "assay_type": "cell-based", "details": "24 h biofilm, purified compound", "experimental": "as §3"}, "[5]": {"tested_on": "Enterobacter cloacae biofilm", "test": "Minimum biofilm eradication concentration (MBEC) assay", "assay_type": "cell-based", "details": "24 h biofilm, purified compound", "experimental": "as §3"}, "[6]": {"tested_on": "Staphylococcus aureus biofilm", "test": "Minimum biofilm eradication concentration (MBEC) assay", "assay_type": "cell-based", "details": "24 h biofilm, purified compound", "experimental": "as §3"}, "Klebsiella pneumoniae": {"tested_on": "Klebsiella pneumoniae", "test": "MIC micro broth dilution assay", "assay_type": "cell-based", "details": "for MIC: Klebsiella pneumoniae", "method_in_brief": "as §2"}},
  "data": [
    {"smiles": "CCCCCCCN1C(=N)N(CCCC[C@H]2CNC(=N)N2CCc2cccc(C(F)(F)F)c2)C[C@@H]1CC1CCCCC1", "note": "[Compound 7]", "values": [
      {"measurement": "increase in MIC after serial passage", "setting": "K. pneumoniae", "result": 8, "unit": "fold"},
      {"measurement": "stacked score activity, 100/MIC, S", "setting": "Staphylococcus aureus; S. aureus", "result": 33},
      {"measurement": "MIC", "setting": "Staphylococcus aureus; S. aureus isolate 542", "result": 2, "unit": "µM"},
      {"measurement": "MIC", "setting": "Staphylococcus aureus; S. aureus isolate 626", "result": 2, "unit": "µM"},
      {"measurement": "MIC", "setting": "Staphylococcus aureus; S. aureus isolate 635", "result": 2, "unit": "µM"},
      {"measurement": "MIC", "setting": "Staphylococcus aureus; S. aureus isolate 648", "result": 2, "unit": "µM"},
      {"measurement": "MIC", "setting": "Staphylococcus aureus; S. aureus isolate 690", "result": 2, "unit": "µM"},
      {"measurement": "MIC", "setting": "Staphylococcus aureus; S. aureus isolate 693", "result": 2, "unit": "µM"},
      {"measurement": "MIC", "setting": "Staphylococcus aureus; S. aureus isolate 715", "result": 2, "unit": "µM"},
      {"measurement": "MIC", "setting": "Staphylococcus aureus; S. aureus isolate 728", "result": 2, "unit": "µM"},
      {"measurement": "MIC", "setting": "Staphylococcus aureus; S. aureus isolate 834", "result": 2, "unit": "µM"},
      {"measurement": "MIC", "setting": "Staphylococcus aureus; S. aureus isolate 1043", "result": 2, "unit": "µM"},
      {"measurement": "MIC", "setting": "Staphylococcus aureus; S. aureus isolate 1049", "result": 2, "unit": "µM"},
      {"measurement": "MIC", "setting": "Staphylococcus aureus; purified compound, Table 1", "result": 1.52, "unit": "µM"},
      {"measurement": "stacked score activity, 100/MIC, E", "setting": "Enterobacter cloacae; E. cloacae", "result": 20},
      {"measurement": "MIC", "setting": "Enterobacter cloacae; E. cloacae isolate 1404", "result": 2, "unit": "µM"},
      {"measurement": "MIC", "setting": "Enterobacter cloacae; E. cloacae isolate 1405", "result": 2, "unit": "µM"},
      {"measurement": "MIC", "setting": "Enterobacter cloacae; E. cloacae isolate 1430", "result": 2, "unit": "µM"},
      {"measurement": "MIC", "setting": "Enterobacter cloacae; E. cloacae isolate 1431", "result": 2, "unit": "µM"},
      {"measurement": "MIC", "setting": "Enterobacter cloacae; E. cloacae isolate 1445", "result": 2, "unit": "µM"},
      {"measurement": "MIC", "setting": "Enterobacter cloacae; E. cloacae isolate 1446", "result": 5, "unit": "µM"},
      {"measurement": "MIC", "setting": "Enterobacter cloacae; E. cloacae isolate 1447", "result": 2, "unit": "µM"},
      {"measurement": "MIC", "setting": "Enterobacter cloacae; E. cloacae isolate 1448", "result": 2, "unit": "µM"},
      {"measurement": "MIC", "setting": "Enterobacter cloacae; E. cloacae isolate 1454", "result": 2, "unit": "µM"},
      {"measurement": "MIC", "setting": "Enterobacter cloacae; E. cloacae isolate 1455", "result": 2, "unit": "µM"},
      {"measurement": "MIC", "setting": "Enterobacter cloacae; purified compound, Table 1", "result": 1.52, "unit": "µM"},
      {"measurement": "concentration inhibiting 90% of isolates", "setting": "Enterobacter cloacae; panel of E. cloacae clinical isolates", "result": 2, "unit": "µM"},
      {"measurement": "increase in MIC after serial passage", "setting": "E. cloacae", "result": 8, "unit": "fold"},
      {"measurement": "increase in MIC after serial passage", "setting": "A. baumannii", "result": 8, "unit": "fold"},
      {"measurement": "MBEC50", "setting": "[1]", "result": 4.81, "unit": "µM"},
      {"measurement": "MBEC50", "setting": "[2]", "result": 45.56, "unit": "µM"},
      {"measurement": "MBEC50", "setting": "[3]", "result": 13.10, "unit": "µM"},
      {"measurement": "MBEC50", "setting": "[4]", "result": 26.30, "unit": "µM"},
      {"measurement": "MBEC50", "setting": "[5]", "result": 14.54, "unit": "µM"},
      {"measurement": "MBEC50", "setting": "[6]", "result": 4.35, "unit": "µM"},
      {"measurement": "stacked score activity, 100/MIC, K", "setting": "Klebsiella pneumoniae; K. pneumoniae", "result": 20},
      {"measurement": "MIC", "setting": "Klebsiella pneumoniae; K. pneumoniae isolate 1408", "result": 2, "unit": "µM"},
      {"measurement": "MIC", "setting": "Klebsiella pneumoniae; K. pneumoniae isolate 1409", "result": 3, "unit": "µM"},
      {"measurement": "MIC", "setting": "Klebsiella pneumoniae; K. pneumoniae isolate 1410", "result": 2, "unit": "µM"},
      {"measurement": "MIC", "setting": "Klebsiella pneumoniae; K. pneumoniae isolate 1411", "result": 2, "unit": "µM"},
      {"measurement": "MIC", "setting": "Klebsiella pneumoniae; K. pneumoniae isolate 1412", "result": 2, "unit": "µM"},
      {"measurement": "MIC", "setting": "Klebsiella pneumoniae; K. pneumoniae isolate 1413", "result": 2, "unit": "µM"},
      {"measurement": "MIC", "setting": "Klebsiella pneumoniae; K. pneumoniae isolate 1433", "result": 2, "unit": "µM"},
      {"measurement": "MIC", "setting": "Klebsiella pneumoniae; K. pneumoniae isolate 1434", "result": 5, "unit": "µM"},
      {"measurement": "MIC", "setting": "Klebsiella pneumoniae; K. pneumoniae isolate 1440", "result": 3, "unit": "µM"},
      {"measurement": "MIC", "setting": "Klebsiella pneumoniae; K. pneumoniae isolate 1441", "result": 2, "unit": "µM"},
      {"measurement": "MIC", "setting": "Klebsiella pneumoniae; purified compound, Table 1", "result": 1.52, "unit": "µM"},
      {"measurement": "concentration inhibiting 90% of isolates", "setting": "Klebsiella pneumoniae; panel of K. pneumoniae clinical isolates", "result": 5, "unit": "µM"}
    ]}
  ]
}
